Source: ChEMBL document CHEMBL3044945, “Synthesis of 1,3,5-trisubstituted pyrazoline nucleus containing compounds and screening for antimicrobial activity” (2012)
≈ marks a conversion by molar mass, not a printed value.

Tests used:
Type in all cases: functional
Bacillus pumilus [1] = test: Antibacterial activity against Bacillus pumilus MTCC 1456 at 1000 ug/ml after 48 hr by cup-plate method; conditions: MTCC 1456, 48 h, read-out: DIZ
Bacillus pumilus [2] = test: Antibacterial activity against Bacillus pumilus MTCC 1456 at 1250 ug/ml after 48 hr by cup-plate method; conditions: MTCC 1456, 48 h, read-out: DIZ
Bacillus subtilis [3] = test: Antibacterial activity against Bacillus subtilis MTCC 441 after 24 to 48 hr by tube dilution method
Aspergillus niger = test: Antifungal activity against Aspergillus niger MTCC 2546 at 1250 ug/ml after 48 hr by cup-plate method; conditions: MTCC 2546, 48 h, read-out: DIZ
Pseudomonas aeruginosa [4] = test: Antibacterial activity against Pseudomonas aeruginosa MTCC 424 after 24 to 48 hr by tube dilution method
Escherichia coli [5] = test: Antibacterial activity against Escherichia coli MTCC 1573 at 750 ug/ml after 48 hr by cup-plate method; conditions: MTCC 1573, 48 h, read-out: DIZ
Bacillus subtilis [6] = test: Antibacterial activity against Bacillus subtilis MTCC 441 at 1000 ug/ml after 48 hr by cup-plate method; conditions: MTCC 441, 48 h, read-out: DIZ
Pseudomonas fluorescens [7] = test: Antibacterial activity against Pseudomonas fluorescens MTCC 2421 at 500 ug/ml after 48 hr by cup-plate method; conditions: MTCC 2421, 48 h, read-out: DIZ
Staphylococcus aureus [8] = test: Antibacterial activity against Staphylococcus aureus MTCC 1430 at 750 ug/ml after 48 hr by cup-plate method; conditions: MTCC 1430, 48 h, read-out: DIZ
Bacillus subtilis [9] = test: Antibacterial activity against Bacillus subtilis MTCC 441 at 250 ug/ml after 48 hr by cup-plate method; conditions: MTCC 441, 48 h, read-out: DIZ
Bacillus pumilus [10] = test: Antibacterial activity against Bacillus pumilus MTCC 1456 after 24 to 48 hr by tube dilution method
Staphylococcus aureus [11] = test: Antibacterial activity against Staphylococcus aureus MTCC 1430 at 500 ug/ml after 48 hr by cup-plate method; conditions: MTCC 1430, 48 h, read-out: DIZ
Micrococcus luteus [12] = test: Antibacterial activity against Micrococcus luteus MTCC 1538 at 500 ug/ml after 48 hr by cup-plate method; conditions: MTCC 1538, 48 h, read-out: DIZ
Escherichia coli [13] = test: Antibacterial activity against Escherichia coli MTCC 1573 at 500 ug/ml after 48 hr by cup-plate method; conditions: MTCC 1573, 48 h, read-out: DIZ
Staphylococcus aureus [14] = test: Antibacterial activity against Staphylococcus aureus MTCC 1430 after 24 to 48 hr by tube dilution method
Micrococcus luteus [15] = test: Antibacterial activity against Micrococcus luteus MTCC 1538 at 1000 ug/ml after 48 hr by cup-plate method; conditions: MTCC 1538, 48 h, read-out: DIZ
Pseudomonas aeruginosa [16] = test: Antibacterial activity against Pseudomonas aeruginosa MTCC 424 at 1000 ug/ml after 48 hr by cup-plate method; conditions: MTCC 424, 48 h, read-out: DIZ
Escherichia coli [17] = test: Antibacterial activity against Escherichia coli MTCC 1573 after 24 to 48 hr by tube dilution method
Micrococcus luteus [18] = test: Antibacterial activity against Micrococcus luteus MTCC 1538 at 750 ug/ml after 48 hr by cup-plate method; conditions: MTCC 1538, 48 h, read-out: DIZ
Bacillus subtilis [19] = test: Antibacterial activity against Bacillus subtilis MTCC 441 at 100 ug/ml after 48 hr by cup-plate method; conditions: MTCC 441, 48 h, read-out: DIZ
Bacillus pumilus [20] = test: Antibacterial activity against Bacillus pumilus MTCC 1456 at 500 ug/ml after 48 hr by cup-plate method; conditions: MTCC 1456, 48 h, read-out: DIZ
Escherichia coli [21] = test: Antibacterial activity against Escherichia coli MTCC 1573 at 100 ug/ml after 48 hr by cup-plate method; conditions: MTCC 1573, 48 h, read-out: DIZ
Staphylococcus aureus [22] = test: Antibacterial activity against Staphylococcus aureus MTCC 1430 at 1250 ug/ml after 48 hr by cup-plate method; conditions: MTCC 1430, 48 h, read-out: DIZ
Bacillus pumilus [23] = test: Antibacterial activity against Bacillus pumilus MTCC 1456 at 750 ug/ml after 48 hr by cup-plate method; conditions: MTCC 1456, 48 h, read-out: DIZ
Micrococcus luteus [24] = test: Antibacterial activity against Micrococcus luteus MTCC 1538 at 100 ug/ml after 48 hr by cup-plate method; conditions: MTCC 1538, 48 h, read-out: DIZ
Penicillium chrysogenum = test: Antifungal activity against Penicillium chrysogenum MTCC 161 at 1000 ug/ml after 48 hr by cup-plate method; conditions: MTCC 161, 48 h, read-out: DIZ
Bacillus pumilus [25] = test: Antibacterial activity against Bacillus pumilus MTCC 1456 at 100 ug/ml after 48 hr by cup-plate method; conditions: MTCC 1456, 48 h, read-out: DIZ
Pseudomonas fluorescens [26] = test: Antibacterial activity against Pseudomonas fluorescens MTCC 2421 after 24 to 48 hr by tube dilution method

MIC (Bacillus subtilis [3]): 50 mg/L (≈ 103 µM) | MIC (Pseudomonas aeruginosa [4]): 50 mg/L (≈ 103 µM) | MIC (Bacillus pumilus [10]): 30 mg/L (≈ 62.1 µM) | MIC (Staphylococcus aureus [14]): 150 mg/L (≈ 310 µM) | MIC (Escherichia coli [17]): 150 mg/L (≈ 310 µM) | MIC (Pseudomonas fluorescens [26]): 150 mg/L (≈ 310 µM)
SMILES: O=[N+]([O-])c1ccc(C2CC(c3cccc4ccccc34)=NN2c2ccc([N+](=O)[O-])cc2[N+](=O)[O-])cc1 (stereo not drawn)
zone of inhibition at 1000 µg/mL (Bacillus pumilus [1]): 22 mm | zone of inhibition at 1250 µg/mL (Bacillus pumilus [2]): 24 mm | zone of inhibition at 1250 µg/mL (Aspergillus niger): 23 mm | zone of inhibition at 750 µg/mL (Escherichia coli [5]): 12 mm | zone of inhibition at 1000 µg/mL (Bacillus subtilis [6]): 15 mm | zone of inhibition at 500 µg/mL (Pseudomonas fluorescens [7]): 18 mm | zone of inhibition at 750 µg/mL (Staphylococcus aureus [8]): 10 mm | zone of inhibition at 250 µg/mL (Bacillus subtilis [9]): 12 mm | zone of inhibition at 500 µg/mL (Staphylococcus aureus [11]): 9 mm | zone of inhibition at 500 µg/mL (Micrococcus luteus [12]): 10 mm | zone of inhibition at 500 µg/mL (Escherichia coli [13]): 11 mm | zone of inhibition at 1000 µg/mL (Micrococcus luteus [15]): 12 mm | zone of inhibition at 1000 µg/mL (Pseudomonas aeruginosa [16]): 14 mm | zone of inhibition at 750 µg/mL (Micrococcus luteus [18]): 11 mm | zone of inhibition at 100 µg/mL (Bacillus subtilis [19]): 11 mm | zone of inhibition at 500 µg/mL (Bacillus pumilus [20]): 18 mm | zone of inhibition at 100 µg/mL (Escherichia coli [21]): 9 mm | zone of inhibition at 1250 µg/mL (Staphylococcus aureus [22]): 14 mm | zone of inhibition at 750 µg/mL (Bacillus pumilus [23]): 20 mm | zone of inhibition at 100 µg/mL (Micrococcus luteus [24]): 8 mm | zone of inhibition at 1000 µg/mL (Penicillium chrysogenum): 24 mm | zone of inhibition at 100 µg/mL (Bacillus pumilus [25]): 10 mm
